The record followed here is PMC10786919, “Design-rules for stapled peptides with in vivo activity and their application to Mdm2/X antagonists” (Nature Communications, 2024).

What is called pEC50 is the negative decadic logarithm of the EC50, by convention in mol/L.

Type in all cases: cell-based
Series [1] concerns p53 responsive β-lactamase reporter in HCT116 cells. Description: cells. The following applies: read-out: p53 reporter assay EC50. On the procedure: HCT116 cells were stably transfected with a p53 responsive β-lactamase reporter and expanded in McCoy’s 5 A Medium with 10% fetal bovine serum (FBS), Blasticidin, and Penicillin/Streptomycin and then transferred to 1.5 ml freezing vials and stored under liquid nitrogen in growth media containing 5% DMSO. […] The cells were then seeded into a 384-well plate at a density of 8000 cells per well. […] The final working concentration of DMSO was 0.5%. β-lactamase activity was detected using the ToxBLAzer Dual Screen (Invitrogen), as per the manufacturer’s instructions. Measurements were made using the Envision multiplate reader (Perkin–Elmer). […] Measurements were taken a minimum of three times (biological replicates) and values are reported as geometric means of the replicates.
(In a reporter assay the amount or activity of a reporter protein is the signal.)

Series [2] is described as follows: Lactate dehydrogenase (LDH) release assay. The following applies: LDH: Cytotoxicity assay EC50. An outline of the steps:
(§1)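 Geometric means of at least three independent biological runs are given for LDH release measured in HCT116 cells stably expressing a p53-driven β-lactamase reporter. Plating density was 8000 cells/well; DMSO in wells was 0.5%.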

In the next series the test system is HCT116 cells. Description: Lactate dehydrogenase (LDH) release assay. An outline of the steps: as §1
Series [3] relates to Jump-In T-REx CHO-K1 BLA cells. Description: cells. As to conditions: for pEC50: read-out: TETCHO: Counterscreen EC50. On the procedure:
This assay was based on Jump-In™ T-REx™ CHO-K1 BLA cells containing a stably integrated β-lactamase under the control of an inducible cytomegalovirus (CMV) promoter. Cells were maintained in Dulbecco’s […] Eagle Medium (DMEM) with 10% fetal bovine serum (FBS), Blasticidin, and Penicillin/Streptomycin and then transferred to 1.5 ml freezing vials and stored under liquid nitrogen in growth media containing 5% DMSO. […] Cells were seeded into a 384-well plate at a density of 4000 cells per well. Peptides were then dispensed to each well using a liquid handler, ECHO 555 and incubated for 16 h. The final working concentration of DMSO was 0.5%. β-lactamase activity was detected using the ToxBLAzer Dual Screen (Invitrogen), as per the manufacturer’s instructions. Measurements were carried out using the Envision multiplate reader (Perkin–Elmer). Counterscreen activity was defined as the amount of β-lactamase activity induced by tetracycline. Measurements were taken a minimum of three times (biological replicates) and values are reported as geometric means of the replicates.

Molecules are shown by their SMILES. pEC50: −log10 of the molar value. Like-named read-outs stand apart in the source and are kept apart here. Starred links: 1 amine or outer side, 2 acyl side, 3 side chain; linkers in the order of their positions; H or OH if unused. Positions of bridges follow the written chain, without caps; N, C: chain ends. Non-standard residues stand in square brackets, D forms with d. Residues, ends and D or L forms follow the SMILES beside them. dR8(desαMe) = O=C([C@@H](CCCCCCC=[*:3])N[*:1])[*:2]; Nle(6-ylidene) = O=C([C@H](CCCC=[*:3])N[*:1])[*:2]; tBuAla = CC(C)(C)C[C@H](N)C(=O)O; R8 = C=CCCCCCC[C@@](C)(N)C(=O)O; S5 = C=CCCC[C@](C)(N)C(=O)O; Ahx = NCCCCCC(=O)O

`CC(=O)N[C@@H](Cc1c[nH]cn1)C(=O)N[C@@H](Cc1c[nH]cn1)C(=O)N[C@@H](Cc1c[nH]cn1)C(=O)NCCCCCC(=O)N[C@H](C(=O)N[C@@H](CO)C(=O)N[C@@H](Cc1ccccc1)C(=O)N[C@]1(C)CCCCCCC=CCCC[C@@](C)(C(N)=O)NC(=O)[C@H](CC(C)C)NC(=O)[C@H](CC(C)C)NC(=O)[C@H](C)NC(=O)[C@H](Cc2c[nH]c3ccccc23)NC(=O)[C@H](Cc2ccc(O)cc2)NC(=O)[C@H](CCC(=O)O)NC1=O)[C@@H](C)O` [MP-008]: the pEC50 was 4.75 in series [1] (0% FBS 4Hr), 4.55 in series [2] and below 4.30 in series [3] (0% FBS 4Hr). Besides, the “LDH: Cytotoxicity assay % Effect” value in the series with HCT116 cells stood at 42.18%. In series [3] (0% FBS 4Hr), the “TETCHO: Counterscreen % Effect” value was determined as 75.71%.

Take `CC(=O)N[C@@H](CCCNC(=N)N)C(=O)N[C@@H](CCCNC(=N)N)C(=O)N[C@@H](CCCNC(=N)N)C(=O)NCCCCCC(=O)N[C@H](C(=O)N[C@@H](CO)C(=O)N[C@@H](Cc1ccccc1)C(=O)N[C@]1(C)CCCCCCC=CCCC[C@@](C)(C(=O)N[C@@H](CCC(=O)O)C(=O)N[C@@H](CC(N)=O)C(=O)N[C@@H](Cc2ccc(O)cc2)C(N)=O)NC(=O)[C@H](CC(C)C)NC(=O)[C@H](CC(C)C)NC(=O)[C@H](C)NC(=O)[C@H](Cc2c[nH]c3ccccc23)NC(=O)[C@H](Cc2ccc(O)cc2)NC(=O)[C@H](CCC(=O)O)NC1=O)[C@@H](C)O` [MP-012] (Ac-RRR[Ahx]TSF[R8]EYWALL[S5]ENY-NH2; staple 8-15): the pEC50 was 4.47 in series [1] (0% FBS 4Hr), below 4.30 in series [2] and below 4.30 in series [3] (0% FBS 4Hr). Also, the “LDH: Cytotoxicity assay % Effect” value with HCT116 cells amounted to 36.73%. Further, the “TETCHO: Counterscreen % Effect” value in series [3] (0% FBS 4Hr) is on record as 23.79%.

For `CC(=O)N[C@@H](CCCCN)C(=O)N[C@@H](CCCCN)C(=O)NCCCCCC(=O)N[C@H](C(=O)N[C@@H](CO)C(=O)N[C@@H](Cc1ccccc1)C(=O)N[C@]1(C)CCCCCCC=CCCC[C@@](C)(C(=O)N[C@@H](CCC(=O)O)C(=O)N[C@@H](CC(N)=O)C(=O)N[C@@H](Cc2ccc(O)cc2)C(N)=O)NC(=O)[C@H](CC(C)C)NC(=O)[C@H](CC(C)C)NC(=O)[C@H](C)NC(=O)[C@H](Cc2c[nH]c3ccccc23)NC(=O)[C@H](Cc2ccc(O)cc2)NC(=O)[C@H](CCC(=O)O)NC1=O)[C@@H](C)O` [MP-013] (Ac-KK[Ahx]TSF[R8]EYWALL[S5]ENY-NH2; staple 7-14), the figures for the negative logarithm of the EC50 (pEC50) in series [1] (0% FBS 4Hr), in series [2] and in series [3] (0% FBS 4Hr) were 5.06, below 4.30 and below 4.30, respectively. Also, the “LDH: Cytotoxicity assay % Effect” value in the series on HCT116 cells is on record as -1.001%. Also, the “TETCHO: Counterscreen % Effect” value in series [3] (0% FBS 4Hr) came to 11.6%.

As for `CC(=O)N[C@H](C(=O)N[C@@H](CO)C(=O)N[C@@H](Cc1ccccc1)C(=O)N[C@]1(C)CCCCCCC=CCCC[C@@](C)(C(=O)N[C@@H](CO)C(=O)N[C@@H](C)C(=O)N[C@@H](C)C(=O)N[C@@H](CCC(=O)O)C(N)=O)NC(=O)[C@H](CC(C)(C)C)NC(=O)[C@H](CC(C)C)NC(=O)[C@H](C)NC(=O)[C@H](Cc2c[nH]c3ccccc23)NC(=O)[C@H](Cc2ccc(O)cc2)NC(=O)[C@H](CCC(=O)O)NC1=O)[C@@H](C)O` [MP-143] (Ac-TSF[R8]EYWAL[tBuAla][S5]SAAE-NH2; staple 4-11), the negative logarithm of the EC50 (pEC50) was 5.05 in series [1] (0% FBS 4Hr), below 4.30 in series [2] and below 4.30 in series [3] (0% FBS 4Hr). The “LDH: Cytotoxicity assay % Effect” value with HCT116 cells amounted to 5.215%. In addition, the “TETCHO: Counterscreen % Effect” value in series [3] (0% FBS 4Hr) was determined as 0.6237%.

For `CC(=O)N[C@H](C(=O)N[C@@H](CO)C(=O)N[C@@H](Cc1ccccc1)C(=O)N[C@]1(C)CCCCCCC=CCCC[C@@](C)(C(N)=O)NC(=O)[C@H](CC(C)(C)C)NC(=O)[C@H](CC(C)C)NC(=O)[C@H](C)NC(=O)[C@H](Cc2c[nH]c3ccccc23)NC(=O)[C@H](Cc2ccc(O)cc2)NC(=O)[C@H](CCC(=O)O)NC1=O)[C@@H](C)O` [MP-149] (Ac-TSF[R8]EYWAL[tBuAla][S5]-NH2; staple 4-11), the results for the negative-log EC50 (pEC50) in series [1] (0% FBS 4Hr), in series [2] and in series [3] (0% FBS 4Hr) were 4.90, 4.55 and below 4.30, respectively. The “LDH: Cytotoxicity assay % Effect” value in the series on HCT116 cells was 42.59%. Besides, in series [3] (0% FBS 4Hr), the “TETCHO: Counterscreen % Effect” value was 20.68%.

As to `CC(=O)N[C@H](C(=O)N[C@@H](CO)C(=O)N[C@@H](Cc1ccccc1)C(=O)N[C@@H]1CCCCCCC=CCCC[C@@H](C(N)=O)NC(=O)[C@H](CC(C)(C)C)NC(=O)[C@H](CC(C)C)NC(=O)[C@H](C)NC(=O)[C@H](Cc2c[nH]c3ccccc23)NC(=O)[C@H](Cc2ccc(O)cc2)NC(=O)[C@H](CCC(=O)O)NC1=O)[C@@H](C)O` [MP-150] (Ac-TSF[dR8(desαMe)]EYWAL[tBuAla][Nle(6-ylidene)]-NH2; staple 4-11), the negative-log EC50 (pEC50) is 4.65 in series [1] (0% FBS 4Hr), below 4.30 in series [2] and below 4.30 in series [3] (0% FBS 4Hr). For the same compound, in the series with HCT116 cells, the “LDH: Cytotoxicity assay % Effect” value is recorded as -0.7157%. The “TETCHO: Counterscreen % Effect” value in series [3] (0% FBS 4Hr) was -3.542%.

As to `CC(=O)N[C@@H](CCCCN)C(=O)N[C@@H](CCCCN)C(=O)N[C@H](C(=O)N[C@@H](CO)C(=O)N[C@@H](Cc1ccccc1)C(=O)N[C@]1(C)CCCCCCC=CCCC[C@@](C)(C(N)=O)NC(=O)[C@H](CC(C)(C)C)NC(=O)[C@H](CC(C)C)NC(=O)[C@H](C)NC(=O)[C@H](Cc2c[nH]c3ccccc23)NC(=O)[C@H](Cc2ccc(O)cc2)NC(=O)[C@H](CCC(=O)O)NC1=O)[C@@H](C)O` [MP-152] (Ac-KKTSF[R8]EYWAL[tBuAla][S5]-NH2; staple 6-13), the negative logarithm of the EC50 (pEC50) in series [1] (0% FBS 4Hr) was 4.71; in series [2], 4.76; in series [3] (0% FBS 4Hr), 4.44. In the series with HCT116 cells, the “LDH: Cytotoxicity assay % Effect” value was 49.97%. Moreover, in series [3] (0% FBS 4Hr), the “TETCHO: Counterscreen % Effect” value was found to be 34.57%.

In the case of `CC(=O)N[C@@H](CCCCN)C(=O)N[C@@H](CCCCN)C(=O)NCCCCCC(=O)N[C@H](C(=O)N[C@@H](CO)C(=O)N[C@@H](Cc1ccccc1)C(=O)N[C@]1(C)CCCCCCC=CCCC[C@@](C)(C(=O)N[C@@H](CCC(=O)O)C(=O)N[C@@H](CC(N)=O)C(=O)N[C@@H](Cc2ccccc2)C(N)=O)NC(=O)[C@H](CC(C)C)NC(=O)[C@H](CC(C)C)NC(=O)[C@H](C)NC(=O)[C@H](Cc2c[nH]c3ccccc23)NC(=O)[C@H](Cc2ccc(O)cc2)NC(=O)[C@H](CCC(=O)O)NC1=O)[C@@H](C)O` [MP-5363] (Ac-KK[Ahx]TSF[R8]EYWALL[S5]ENF-NH2; staple 7-14), the pEC50 was 5.47 in series [1] (0% FBS 4Hr), 5.49 in series [1] (0% FBS 16Hr) and below 4.30 in series [3] (0% FBS 4Hr). Also, the “TETCHO: Counterscreen % Effect” value in series [3] (0% FBS 4Hr) amounted to 48.32%; in series [3] (0% FBS 16Hr) it was 4.17%.

As for `CC(=O)N[C@@H](CCCCN)C(=O)NCCCCCC(=O)N[C@H](C(=O)N[C@@H](CO)C(=O)N[C@@H](Cc1ccccc1)C(=O)N[C@]1(C)CCCCCCC=CCCC[C@@](C)(C(=O)N[C@@H](CCC(=O)O)C(=O)N[C@@H](CC(N)=O)C(=O)N[C@@H](Cc2ccccc2)C(N)=O)NC(=O)[C@H](CC(C)C)NC(=O)[C@H](CC(C)C)NC(=O)[C@H](C)NC(=O)[C@H](Cc2c[nH]c3ccccc23)NC(=O)[C@H](Cc2ccc(O)cc2)NC(=O)[C@H](CCC(=O)O)NC1=O)[C@@H](C)O` [MP-5365], the figures for the negative logarithm of the EC50 (pEC50) in series [1] (0% FBS 4Hr), in series [1] (0% FBS 16Hr) and in series [3] (0% FBS 4Hr) were 5.45, 5.66 and below 4.30, respectively. In addition, the “TETCHO: Counterscreen % Effect” value amounted to 4.41% in series [3] (0% FBS 4Hr) and 1.46% in series [3] (0% FBS 16Hr).
